Biological target: cytochrome c oxidase (complex IV) (Bos taurus, UniProt P00396)
Assay: spectrophotometric ferrocytochrome c oxidation at […] nm
Format: biochemical

With `S` [sulfide] the Ki was 85 nM.

Source: PMC5494963 (Chemical research in toxicology, 2011)
